# Source: ChEMBL document CHEMBL1201862, “PubChem BioAssay data set” (2004)
# Active and inactive are the calls of the source.
# Experiments:
# [1] = biological target: Mitochondrial peptide methionine sulfoxide reductase (Bos taurus, UniProt P54149); type: functional;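 also: absorbance read-out, biochemical high-throughput dose-response screen for MsrA inhibitors, confirmatory; recombinant bovine MsrA coupled to E. coli TrxB with NADPH and selenocystamine; potency is for inhibitors of MsrA activity on DMSO substrate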
# Mitochondrial peptide methionine sulfoxide reductase, sequence (P54149 whole entry): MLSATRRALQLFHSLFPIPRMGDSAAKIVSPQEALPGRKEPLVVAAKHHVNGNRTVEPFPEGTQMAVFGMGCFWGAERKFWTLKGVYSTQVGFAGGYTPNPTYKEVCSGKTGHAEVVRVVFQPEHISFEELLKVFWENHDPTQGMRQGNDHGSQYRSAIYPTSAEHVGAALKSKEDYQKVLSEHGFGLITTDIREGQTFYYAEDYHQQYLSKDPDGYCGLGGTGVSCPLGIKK
# H9c2 = assay: cells; type: functional, cell-based; conditions: Rattus norvegicus, H9c2, Myocardium;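 also: confirmatory concentration-response retest of ultra-high-throughput screening hits for modulation of myocardial damage; cell death induced by hydrogen peroxide oxidative stress; compound pretreatment for 60 min then peroxide exposure for 2 h; potency is for protecting the cells against peroxide damage rather than for killing them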
# [2] = bead-based luminescence quenchers, dual-tagged ARNT – biochemical, AlphaScreen, cherry-pick, artefact control for ARNT-TACC3 interaction inhibitor project, dose response (AID 651705); type: functional;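 also: AlphaScreen bead proximity signal that flags compounds interfering with the detection technology; potency reflects signal decrease which marks the compound as an assay artifact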
# Melanocortin receptor 4 = Melanocortin receptor 4 (Homo sapiens, UniProt P32245); type: functional, cell-based;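 also: Cell-based assay with luminescence read-out, confirmatory dose-response testing for agonist activity of biased ligands at MC4R; human U2OS cells with tagged receptor and beta-arrestin; potency of agonists that increase receptor coupling to beta-arrestin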
# [3] = biological target: Nuclear receptor subfamily 5 group A member 2 (Homo sapiens, UniProt O00482); type: functional, cell-based;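 also: HEK293T cells transfected with LRH-1 and a StAR promoter luciferase reporter; potency for inhibitors that lower LRH-1 driven reporter light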
# Steroidogenic factor 1 = Steroidogenic factor 1 (Homo sapiens, UniProt Q13285); assay: Counterscreen for inverse agonists of the liver receptor homolog-1 (LRH-1; NR5A2): Luminescence-based cell-based high throughput dose response assay to identify inverse agonists of the Steroidogenic Factor 1 Nuclear Receptor (SF1; NR5A1).; type: functional
# Steroidogenic factor 1, sequence (Q13285 whole entry): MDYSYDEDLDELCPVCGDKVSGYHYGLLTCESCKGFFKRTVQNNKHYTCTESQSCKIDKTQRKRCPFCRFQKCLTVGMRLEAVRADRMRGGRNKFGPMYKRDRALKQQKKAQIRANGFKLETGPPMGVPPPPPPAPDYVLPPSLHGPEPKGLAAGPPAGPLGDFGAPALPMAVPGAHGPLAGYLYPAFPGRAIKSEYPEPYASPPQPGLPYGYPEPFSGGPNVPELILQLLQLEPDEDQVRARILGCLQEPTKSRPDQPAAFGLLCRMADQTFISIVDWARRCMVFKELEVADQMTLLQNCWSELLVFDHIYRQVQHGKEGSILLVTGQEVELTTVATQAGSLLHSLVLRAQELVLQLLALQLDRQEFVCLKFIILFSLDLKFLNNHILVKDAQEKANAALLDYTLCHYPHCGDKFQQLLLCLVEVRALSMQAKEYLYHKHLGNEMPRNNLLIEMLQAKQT
# [4] = nonselective StAR promoter luciferase inhibitors – cell-based, luminescence, luciferase reporter, counter-screen for LRH-1 inverse agonist project, dose response (AID 651969); type: functional
# [5] = biological target: T1, DNA dC->dU-editing enzyme APOBEC-3A (Homo sapiens, UniProt P31941); assay: Dose Response confirmation of small molecule APOBEC3A DNA Deaminase Inhibitors via a fluorescence-based single-stranded DNA deaminase assay. [Related pubchem assays (depositor defined):AID493011, AID493024]; type: functional
# T1 sequence (P31941 whole entry): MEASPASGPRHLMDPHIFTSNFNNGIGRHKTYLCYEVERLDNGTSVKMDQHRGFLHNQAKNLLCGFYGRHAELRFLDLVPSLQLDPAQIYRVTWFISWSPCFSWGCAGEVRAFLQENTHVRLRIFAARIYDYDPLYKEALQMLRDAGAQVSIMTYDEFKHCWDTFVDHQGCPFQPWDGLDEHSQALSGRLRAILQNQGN
# [6] = biological target: T2, DNA dC->dU-editing enzyme APOBEC-3G (Homo sapiens, UniProt Q9HC16); type: functional
# T2 sequence (Q9HC16 whole entry): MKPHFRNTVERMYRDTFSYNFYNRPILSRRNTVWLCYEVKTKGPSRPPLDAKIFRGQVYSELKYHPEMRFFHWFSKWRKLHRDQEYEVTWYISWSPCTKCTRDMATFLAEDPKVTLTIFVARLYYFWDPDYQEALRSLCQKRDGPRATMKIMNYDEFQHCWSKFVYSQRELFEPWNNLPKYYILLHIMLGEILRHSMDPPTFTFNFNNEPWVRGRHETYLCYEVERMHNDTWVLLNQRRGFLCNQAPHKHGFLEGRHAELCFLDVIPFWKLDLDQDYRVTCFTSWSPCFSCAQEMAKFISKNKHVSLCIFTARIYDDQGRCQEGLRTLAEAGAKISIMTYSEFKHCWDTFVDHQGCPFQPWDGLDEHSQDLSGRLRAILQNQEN
# [7] = biological target: T1, DNA dC->dU-editing enzyme APOBEC-3A; assay: SAR analysis of small molecule inhibitors of APOBEC3A DNA Deaminase via a fluorescence-based single-stranded DNA deaminase assay - Set 2.; type: functional; conditions: read-out: IC50_Mean
# [8] = biological target: T2, DNA dC->dU-editing enzyme APOBEC-3G; assay: SAR analysis of small molecule inhibitors of APOBEC3G DNA Deaminase via a fluorescence-based single-stranded DNA deaminase assay - Set 2.; type: functional; conditions: read-out: IC50_Mean
# [9] = biological target: T2, DNA dC->dU-editing enzyme APOBEC-3G; assay: inhibition of APOBEC3G ssDNA deamination – biochemical, fluorescence, single-stranded DNA substrate, SAR follow-up (AID 602136); type: functional; conditions: read-out: IC50_Mean
# [10] = biological target: T1, DNA dC->dU-editing enzyme APOBEC-3A; assay: SAR analysis of small molecule inhibitors of APOBEC3A DNA Deaminase via a fluorescence-based single-stranded DNA deaminase assay.; type: functional; conditions: read-out: IC50_Mean
# [11] = biological target: ADP-ribosylation factor GTPase-activating protein 1 (Rattus norvegicus, UniProt Q62848); assay: Fluorescence polarization-based biochemical high throughput dose response screening assay to identify inhibitors of ADP-ribosylation factor GTPase activating protein 1 (ARFGAP1).; type: functional
# [12] = biological target: T3, ATP-dependent translocase ABCB1 (Homo sapiens, UniProt P08183); assay: inhibition of BCRP-mediated JC-1 efflux – Ig-MXP3 cells, flow cytometry, set 2, dose response (AID 504566); type: functional; conditions: read-out: EC50_MICROM_;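 also: flow cytometry median green fluorescence of retained JC-1 dye; potency of efflux pump inhibition measured as rising substrate retention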
# T3 sequence (P08183 whole entry): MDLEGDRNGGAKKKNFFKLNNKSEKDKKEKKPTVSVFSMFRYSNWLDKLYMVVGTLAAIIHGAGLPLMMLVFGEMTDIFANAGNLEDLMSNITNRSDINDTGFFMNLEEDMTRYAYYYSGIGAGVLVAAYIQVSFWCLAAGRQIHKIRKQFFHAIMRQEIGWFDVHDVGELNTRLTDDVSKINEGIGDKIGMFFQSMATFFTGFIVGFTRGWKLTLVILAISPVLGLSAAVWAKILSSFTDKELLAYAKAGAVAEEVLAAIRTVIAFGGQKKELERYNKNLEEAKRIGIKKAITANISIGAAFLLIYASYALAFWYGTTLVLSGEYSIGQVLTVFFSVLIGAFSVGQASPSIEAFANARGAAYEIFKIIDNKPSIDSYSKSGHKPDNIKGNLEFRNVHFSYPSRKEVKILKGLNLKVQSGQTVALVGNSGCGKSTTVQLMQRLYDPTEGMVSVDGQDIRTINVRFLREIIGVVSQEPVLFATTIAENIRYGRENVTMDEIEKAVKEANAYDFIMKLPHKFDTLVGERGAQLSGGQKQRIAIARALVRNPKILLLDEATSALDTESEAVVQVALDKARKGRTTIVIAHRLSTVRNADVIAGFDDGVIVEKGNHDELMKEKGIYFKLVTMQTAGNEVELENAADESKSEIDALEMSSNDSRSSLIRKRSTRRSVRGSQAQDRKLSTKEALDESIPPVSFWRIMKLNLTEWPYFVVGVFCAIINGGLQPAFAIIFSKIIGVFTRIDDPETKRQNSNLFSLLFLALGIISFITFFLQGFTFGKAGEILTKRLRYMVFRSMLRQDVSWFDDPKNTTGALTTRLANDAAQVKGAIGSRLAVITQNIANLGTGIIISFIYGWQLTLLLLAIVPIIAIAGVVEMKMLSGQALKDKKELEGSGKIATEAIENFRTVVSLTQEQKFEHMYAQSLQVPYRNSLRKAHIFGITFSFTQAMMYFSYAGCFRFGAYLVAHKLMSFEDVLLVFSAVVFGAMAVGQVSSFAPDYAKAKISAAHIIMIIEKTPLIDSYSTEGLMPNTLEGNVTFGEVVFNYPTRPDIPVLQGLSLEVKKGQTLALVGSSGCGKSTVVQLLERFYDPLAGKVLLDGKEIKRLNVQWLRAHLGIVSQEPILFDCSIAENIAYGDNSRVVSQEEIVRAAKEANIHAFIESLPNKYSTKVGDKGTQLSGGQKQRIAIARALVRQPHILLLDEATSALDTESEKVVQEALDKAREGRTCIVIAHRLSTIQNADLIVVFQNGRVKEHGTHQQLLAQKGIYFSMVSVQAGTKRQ
# [13] = biological target: T3, ATP-dependent translocase ABCB1; assay: P-gp JC-1 efflux blockade concentration-response – Jurkat-DNR cells, flow cytometry, set 2, dose response (AID 504569); type: functional; conditions: read-out: EC50_MICROM_;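 also: potency of pump inhibitors that raise cellular JC-1 green fluorescence up to the nicardipine level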
# [14] = biological target: T4, Protein disulfide-isomerase (Homo sapiens, UniProt P07237); assay: inhibition of PDI-driven insulin aggregation – biochemical, turbidity, absorbance, cherry-picked samples, dose response (AID 602350); type: functional
# T4 sequence (P07237 whole entry): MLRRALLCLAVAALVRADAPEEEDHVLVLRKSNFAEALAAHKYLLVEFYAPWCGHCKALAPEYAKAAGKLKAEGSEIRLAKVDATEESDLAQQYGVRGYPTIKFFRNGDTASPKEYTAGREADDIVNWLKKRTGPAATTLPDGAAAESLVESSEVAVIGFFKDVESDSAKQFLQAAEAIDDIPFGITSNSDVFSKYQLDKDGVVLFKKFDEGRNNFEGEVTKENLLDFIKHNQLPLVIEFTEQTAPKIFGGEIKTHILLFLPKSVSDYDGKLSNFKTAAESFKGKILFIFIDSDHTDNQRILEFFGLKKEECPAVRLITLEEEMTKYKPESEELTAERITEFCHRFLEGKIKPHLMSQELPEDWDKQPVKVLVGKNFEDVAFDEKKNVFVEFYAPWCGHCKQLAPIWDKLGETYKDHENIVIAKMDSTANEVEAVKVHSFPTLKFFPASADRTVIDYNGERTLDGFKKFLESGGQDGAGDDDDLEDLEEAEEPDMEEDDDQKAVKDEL
# [15] = biological target: T4, Protein disulfide-isomerase; assay: inhibition of PDI-mediated insulin reduction – biochemical, turbidity, absorbance, cherry-picked samples, set 2, dose response (AID 624274); type: functional
# Nonstructural protein 1 = Nonstructural protein 1 (Influenza A virus, UniProt Q194T2); type: functional, Influenza A virus (A/California/07/2009(H1N1))
# Nonstructural protein 1, sequence (Q194T2 whole entry): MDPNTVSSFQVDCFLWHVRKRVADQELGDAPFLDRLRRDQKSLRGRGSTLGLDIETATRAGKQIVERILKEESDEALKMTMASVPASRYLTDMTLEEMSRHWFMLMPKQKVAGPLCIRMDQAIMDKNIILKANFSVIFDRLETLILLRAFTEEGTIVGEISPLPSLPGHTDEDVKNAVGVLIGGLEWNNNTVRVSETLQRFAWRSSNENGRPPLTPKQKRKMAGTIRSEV
# [16] = NIH3T3 cell viability loss, ATP content – CellTiter-Glo luminescence, cherry-pick, set 2, cytotoxicity control for HSP40 inhibitor project, dose response (AID 624265); type: functional
# [17] = biological target: T5, Histone-lysine N-methyltransferase NSD2 (Homo sapiens, UniProt O96028); type: biochemical
# T5 sequence (O96028 whole entry): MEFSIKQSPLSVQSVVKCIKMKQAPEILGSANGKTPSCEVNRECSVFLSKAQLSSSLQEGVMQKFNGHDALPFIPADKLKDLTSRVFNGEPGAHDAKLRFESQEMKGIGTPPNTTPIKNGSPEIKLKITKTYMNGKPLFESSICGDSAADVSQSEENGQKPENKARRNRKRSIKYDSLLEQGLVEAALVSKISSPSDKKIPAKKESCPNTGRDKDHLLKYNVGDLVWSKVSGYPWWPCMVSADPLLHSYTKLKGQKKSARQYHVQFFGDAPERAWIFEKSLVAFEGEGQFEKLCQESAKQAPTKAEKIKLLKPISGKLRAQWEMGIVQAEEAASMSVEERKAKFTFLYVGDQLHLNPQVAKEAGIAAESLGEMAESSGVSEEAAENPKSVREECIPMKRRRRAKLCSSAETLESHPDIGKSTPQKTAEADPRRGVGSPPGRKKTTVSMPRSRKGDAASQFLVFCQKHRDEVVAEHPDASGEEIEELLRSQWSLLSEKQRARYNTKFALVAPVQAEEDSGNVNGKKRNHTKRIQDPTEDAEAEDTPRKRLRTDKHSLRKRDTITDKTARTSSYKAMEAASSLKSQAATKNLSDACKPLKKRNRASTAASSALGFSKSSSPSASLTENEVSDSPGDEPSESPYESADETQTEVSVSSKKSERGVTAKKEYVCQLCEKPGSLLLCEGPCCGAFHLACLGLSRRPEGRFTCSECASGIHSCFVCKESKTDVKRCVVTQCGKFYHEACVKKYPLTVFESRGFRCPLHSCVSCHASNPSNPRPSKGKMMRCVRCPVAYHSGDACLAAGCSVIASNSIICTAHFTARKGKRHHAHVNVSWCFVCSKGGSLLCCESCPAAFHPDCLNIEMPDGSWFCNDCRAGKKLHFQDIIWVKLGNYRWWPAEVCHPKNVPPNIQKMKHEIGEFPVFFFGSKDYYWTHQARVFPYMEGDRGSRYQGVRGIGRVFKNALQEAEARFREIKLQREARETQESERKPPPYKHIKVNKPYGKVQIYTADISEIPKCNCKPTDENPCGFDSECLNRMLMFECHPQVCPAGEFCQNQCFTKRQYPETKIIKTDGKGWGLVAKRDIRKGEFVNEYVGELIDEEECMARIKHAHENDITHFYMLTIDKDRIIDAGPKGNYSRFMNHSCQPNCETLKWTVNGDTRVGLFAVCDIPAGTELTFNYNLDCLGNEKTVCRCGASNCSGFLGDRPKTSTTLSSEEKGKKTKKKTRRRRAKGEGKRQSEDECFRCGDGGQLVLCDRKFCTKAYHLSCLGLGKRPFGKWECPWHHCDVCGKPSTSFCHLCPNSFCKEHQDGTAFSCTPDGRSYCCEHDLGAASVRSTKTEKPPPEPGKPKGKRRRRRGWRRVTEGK
# Hexokinase HKDC1 = biological target: T6, Hexokinase HKDC1 (Homo sapiens, UniProt Q2TB90); assay: inhibition of HKDC1 glucose phosphorylation – biochemical, W721R variant, dose response (AID 504729); type: functional
# T6 sequence (Q2TB90 whole entry): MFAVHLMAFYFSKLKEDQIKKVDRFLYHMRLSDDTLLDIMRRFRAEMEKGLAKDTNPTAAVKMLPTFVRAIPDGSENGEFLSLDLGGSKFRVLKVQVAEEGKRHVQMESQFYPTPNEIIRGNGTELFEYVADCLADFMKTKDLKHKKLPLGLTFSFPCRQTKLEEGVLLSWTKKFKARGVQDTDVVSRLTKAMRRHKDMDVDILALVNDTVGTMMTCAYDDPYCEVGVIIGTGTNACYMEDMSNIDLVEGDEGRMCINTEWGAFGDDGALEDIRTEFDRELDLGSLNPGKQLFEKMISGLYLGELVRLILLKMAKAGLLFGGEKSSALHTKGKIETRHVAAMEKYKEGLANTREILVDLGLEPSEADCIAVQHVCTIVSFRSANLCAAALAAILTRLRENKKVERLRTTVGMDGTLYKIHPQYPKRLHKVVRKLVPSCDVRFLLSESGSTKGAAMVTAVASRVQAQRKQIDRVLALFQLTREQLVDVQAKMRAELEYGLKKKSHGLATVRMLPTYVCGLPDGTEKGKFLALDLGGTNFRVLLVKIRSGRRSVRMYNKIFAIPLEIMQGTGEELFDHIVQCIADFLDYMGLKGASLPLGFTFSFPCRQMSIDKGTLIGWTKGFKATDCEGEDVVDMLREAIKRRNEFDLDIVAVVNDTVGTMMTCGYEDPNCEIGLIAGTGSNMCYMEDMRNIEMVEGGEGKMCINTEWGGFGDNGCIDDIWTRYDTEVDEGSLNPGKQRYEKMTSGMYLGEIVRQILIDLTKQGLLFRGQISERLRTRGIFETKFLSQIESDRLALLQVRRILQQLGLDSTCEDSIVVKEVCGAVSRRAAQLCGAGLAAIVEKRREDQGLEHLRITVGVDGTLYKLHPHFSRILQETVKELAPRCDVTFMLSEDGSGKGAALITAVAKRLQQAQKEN
# [18] = biological target: DNA (cytosine-5)-methyltransferase 1 (Homo sapiens, UniProt P26358); assay: inhibition of DNA methylation by DNMT1 – biochemical, fluorescent molecular beacon, confirmation (AID 602386); type: functional
# [19] = biological target: T7, Small ubiquitin-related modifier 1 (Homo sapiens, UniProt P63165); assay: SUMO1 protein interaction blockers, potency – biochemical, fluorescence polarization, uHTS hits, dose response (AID 624382); type: functional; conditions: read-out: IC50_Mean
# T7 sequence (P63165 whole entry): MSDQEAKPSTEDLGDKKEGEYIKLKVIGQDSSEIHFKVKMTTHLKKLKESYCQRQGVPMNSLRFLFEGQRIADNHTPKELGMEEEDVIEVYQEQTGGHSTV
# [20] = biological target: T7, Small ubiquitin-related modifier 1; assay: SUMO1 protein-protein binding blockers, potency – biochemical, FRET, dose response (AID 624383); type: functional; conditions: read-out: IC50_Mean
# [21] = biological target: Aryl hydrocarbon receptor (Homo sapiens, UniProt P35869); conditions: Potency;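 also: confirmatory quantitative high-throughput screen measuring activation of the AhR signaling pathway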
# Aryl hydrocarbon receptor, sequence (P35869 whole entry, the tested form may be a part): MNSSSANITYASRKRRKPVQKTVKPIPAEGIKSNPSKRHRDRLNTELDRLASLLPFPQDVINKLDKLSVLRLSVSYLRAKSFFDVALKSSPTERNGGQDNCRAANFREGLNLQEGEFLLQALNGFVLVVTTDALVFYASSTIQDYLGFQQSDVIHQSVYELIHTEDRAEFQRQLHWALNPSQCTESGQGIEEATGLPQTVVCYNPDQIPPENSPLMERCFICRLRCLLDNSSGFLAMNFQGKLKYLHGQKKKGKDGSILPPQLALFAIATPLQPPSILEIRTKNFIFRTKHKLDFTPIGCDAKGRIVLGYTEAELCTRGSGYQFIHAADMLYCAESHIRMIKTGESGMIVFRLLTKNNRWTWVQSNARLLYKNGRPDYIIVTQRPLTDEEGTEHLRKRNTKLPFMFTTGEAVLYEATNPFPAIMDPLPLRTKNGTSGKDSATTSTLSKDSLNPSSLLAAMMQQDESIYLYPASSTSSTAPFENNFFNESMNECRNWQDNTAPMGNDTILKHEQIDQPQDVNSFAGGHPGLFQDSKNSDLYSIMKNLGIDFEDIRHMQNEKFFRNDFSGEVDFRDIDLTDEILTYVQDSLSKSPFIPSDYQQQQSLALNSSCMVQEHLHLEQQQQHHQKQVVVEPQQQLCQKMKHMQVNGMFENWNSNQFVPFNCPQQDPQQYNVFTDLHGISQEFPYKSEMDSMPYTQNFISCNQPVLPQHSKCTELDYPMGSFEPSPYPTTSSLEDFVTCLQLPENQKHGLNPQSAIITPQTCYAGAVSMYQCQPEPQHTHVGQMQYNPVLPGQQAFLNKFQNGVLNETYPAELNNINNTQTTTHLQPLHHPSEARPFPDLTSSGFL
# [22] = inhibition of ARNT PAS-B/TACC3 complex formation – biochemical, AlphaScreen, cherry-picked samples, confirmation (AID 651703); type: functional, Homo sapiens;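 also: His-tagged ARNT PAS-B domain paired with GST-TACC3 E629A dimer coactivator fragment; potency of inhibitors that break up the complex and lower AlphaScreen signal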
# [23] = biological target: Neurotensin receptor type 1 (Homo sapiens, UniProt P30989); type: functional;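 also: Image-based confirmatory dose-response assay measuring agonist activity at NTR1; NTR1-expressing U2OS osteosarcoma cells imaged for beta-arrestin GFP spot formation; agonist potency where compounds increase beta-arrestin recruitment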
# [24] = cytotoxicity toward MDA-MB-231 breast cancer cells – cell-based, CellTiter-Glo luminescence, cherry-pick, cytotoxicity control for RAD54 inhibitor project, dose response (AID 651692); type: functional
# [25] = biological target: DNA repair and recombination protein RAD54-like (Homo sapiens, UniProt Q92698); assay: RAD54 Holliday junction migration blockers – biochemical, fluorescence, cherry-picked samples, dose series, confirmation (AID 651657); type: functional
# DNA repair and recombination protein RAD54-like, sequence (Q92698 whole entry): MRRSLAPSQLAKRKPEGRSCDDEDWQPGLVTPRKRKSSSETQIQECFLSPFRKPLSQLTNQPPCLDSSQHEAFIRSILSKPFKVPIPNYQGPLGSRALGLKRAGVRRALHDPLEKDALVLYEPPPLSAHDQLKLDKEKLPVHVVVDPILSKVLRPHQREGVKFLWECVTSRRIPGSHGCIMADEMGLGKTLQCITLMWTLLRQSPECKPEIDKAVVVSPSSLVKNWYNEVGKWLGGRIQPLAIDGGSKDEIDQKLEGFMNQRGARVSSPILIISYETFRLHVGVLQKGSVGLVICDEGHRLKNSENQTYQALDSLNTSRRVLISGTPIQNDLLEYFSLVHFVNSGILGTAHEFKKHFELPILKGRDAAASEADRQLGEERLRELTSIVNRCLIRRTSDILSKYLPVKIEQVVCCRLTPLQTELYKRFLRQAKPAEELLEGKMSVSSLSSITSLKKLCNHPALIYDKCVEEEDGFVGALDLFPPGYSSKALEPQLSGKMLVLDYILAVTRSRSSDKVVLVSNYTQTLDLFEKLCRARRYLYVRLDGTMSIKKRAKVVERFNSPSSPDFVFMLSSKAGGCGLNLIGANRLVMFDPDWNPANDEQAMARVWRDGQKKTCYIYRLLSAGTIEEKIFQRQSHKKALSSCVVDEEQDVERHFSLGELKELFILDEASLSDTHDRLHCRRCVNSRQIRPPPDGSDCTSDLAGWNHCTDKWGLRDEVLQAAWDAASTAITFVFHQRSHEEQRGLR
compound,measurement,setting,value
CCOC(=O)CC(C)(C)/C(C)=N/Nc1ccc([N+](=O)[O-])cc1[N+](=O)[O-],IC50,[1],155 µM (inactive)
Brc1ccc(-c2nn3c(-c4ccccn4)nnc3s2)o1,IC50,H9c2,14.8 µM (active)
same,AC50,[2],104 µM (active)
COc1ccccc1-c1cc(NC=O)c2ncc(-c3cccc(C(F)(F)F)c3)n2c1,EC50,Melanocortin receptor 4,> 89.2 µM (inactive)
CCOc1ccc(NC(=O)CN2CCN(CC(=O)Nc3ccc(OC)cc3)CC2)cc1,IC50,[3],18.1 µM (inactive)
same,IC50,Steroidogenic factor 1,3.07 µM (active)
same,IC50,[4],35.9 µM (inactive)
Cc1ccc[n+](CC(=O)Nc2cc(C(F)(F)F)ccc2N2CCOCC2)c1,IC50,[5],2.88 µM (active)
same,IC50,[6],7.42 µM (active)
same,IC50,[7],26.6 µM (inactive)
same,IC50,[8],0.601 µM (active)
same,IC50,[9],9.17 µM (active)
same,IC50,[10],20.3 µM (inactive)
COc1ccc(-n2c(SCC(N)=O)nc3sc4c(c3c2=O)CCN(C)C4)cc1,IC50,[11],111 µM (inactive)
COc1ccc(-c2cc3nc(-c4ccccc4)cc(N4CCN(C(=O)c5ccsc5)CC4)n3n2)cc1,EC50,[12],0.77 µM (active)
same,EC50,[13],1.02 µM (active)
COc1cccc(/C=N/NC(=O)CNC(=O)c2ccc3c(c2)OCCO3)c1O,AC50,[14],< 0.009 µM (active)
same,AC50,[15],0.009 µM (active)
O=C1c2cccc(Cl)c2C(=O)c2c1cccc2N1CCCC1,IC50,Nonstructural protein 1,8.7 µM (active)
same,AbsAC35_uM,[16],61.52 µM
same,AC50,[17],2.51 µM (active)
O=C(/C=C/c1ccc(Br)cc1)NC(=S)Nc1ccc(S(=O)(=O)Nc2nccs2)cc1,IC50,Hexokinase HKDC1,17.3 µM (active)
same,IC50,[18],5.22 µM (active)
same,IC50,[19],> 66.6 µM (inactive)
same,IC50,[20],3.39 µM (active)
O=C(O)c1cc2ccccc2cc1O,AC50,[21],50.1 µM (inconclusive)
N=C(NNS(=O)(=O)c1cc(C(F)(F)F)cc(C(F)(F)F)c1)c1ccccn1,AC50,[22],104 µM (active)
CCOC(=O)c1c(NC(C)=O)sc2c(OCC(O)CN(CC)CC)c(Br)ccc12 (stereo not given),EC50,[23],22.6 µM (inactive)
same,AC50,[24],24.6 µM (active)
same,AC50,[25],8.3 µM (active)
